Results on 13 compounds are retold here after patent publication US7319098B2, “1,3-dioxoisoindole derivatives having selective antagonism of T-type calcium channel” (Korea Institute of Science and Technology, priority 2006, dated 2008).

Each structure is given as a SMILES string.

Test [1] addresses T1, α1G T-type Ca2+ channels (Homo sapiens, UniProt O43497).
T1 construct: expressed in transfected cells; host or cells: HEK293 cells stably expressing α1G and Kir2.1
Kind of test: Screening of activity against T-type calcium channel with FDSS6000 (fluorescence, KCl-induced [Ca2+]i increase). The settings on record: HEK293 cells expressing α1G and Kir2.1, read-out: Inhibitory effect (%) of T-type calcium channel, Inhibition (%); for inhibition at 10 µM: NA: Not Active. The test is classed as cell-based. In short, it runs like this: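 HEK293 cells stably expressing α1G plus Kir2.1 were loaded with 5 μM fluo3/AM for 60 min at room temperature in HEPES buffer pH 7.4. In buffer with 10 mM CaCl2, cells were pretreated with compound, then depolarized with 70 mM KCl. The rise in [Ca2+]i was measured by fluorescence […].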

The target in test [2] is T2, α1G T-type Ca2+ currents (Homo sapiens, UniProt O43497).
T2 construct: expressed in transfected cells; host or cells: HEK293
In words: Electrophysiological whole cell patch clamp method in HEK293 cell. Format: cell-based. The note with it: peak current, step to −30 mV, read-out: Activity (IC50) against T-type calcium channel. As for the experimental part: Meanwhile, the antagonistic activity of the novel compound of Formula (1) herein against T-type calcium channel was tested as described below. The synthesized compounds were tested for the activity against T-type calcium channel with FDSS6000. […] For the recordings of α1G T-type Ca^2+ currents, the standard whole-cell patch-clamp method was utilized as previously described. Briefly, borosilicate glass electrodes with a resistance of 3˜4 MΩ were pulled and filled with the internal solution contained (in mM): 130 KCl, 11 EGTA, 5 Mg-ATP, and 10 HEPES (pH 7.4). […] The molar concentrations of test compounds required to produce 50% inhibition of peak currents (IC50) were determined from fitting raw data into dose-response curves. The current recordings were obtained using an EPC-9 amplifier and Pulse/Pulsefit software program (HEKA, Germany).

For test [3] the following is noted: spinal nerve ligation animal model; cited from earlier work.

T1 sequence (O43497 whole entry): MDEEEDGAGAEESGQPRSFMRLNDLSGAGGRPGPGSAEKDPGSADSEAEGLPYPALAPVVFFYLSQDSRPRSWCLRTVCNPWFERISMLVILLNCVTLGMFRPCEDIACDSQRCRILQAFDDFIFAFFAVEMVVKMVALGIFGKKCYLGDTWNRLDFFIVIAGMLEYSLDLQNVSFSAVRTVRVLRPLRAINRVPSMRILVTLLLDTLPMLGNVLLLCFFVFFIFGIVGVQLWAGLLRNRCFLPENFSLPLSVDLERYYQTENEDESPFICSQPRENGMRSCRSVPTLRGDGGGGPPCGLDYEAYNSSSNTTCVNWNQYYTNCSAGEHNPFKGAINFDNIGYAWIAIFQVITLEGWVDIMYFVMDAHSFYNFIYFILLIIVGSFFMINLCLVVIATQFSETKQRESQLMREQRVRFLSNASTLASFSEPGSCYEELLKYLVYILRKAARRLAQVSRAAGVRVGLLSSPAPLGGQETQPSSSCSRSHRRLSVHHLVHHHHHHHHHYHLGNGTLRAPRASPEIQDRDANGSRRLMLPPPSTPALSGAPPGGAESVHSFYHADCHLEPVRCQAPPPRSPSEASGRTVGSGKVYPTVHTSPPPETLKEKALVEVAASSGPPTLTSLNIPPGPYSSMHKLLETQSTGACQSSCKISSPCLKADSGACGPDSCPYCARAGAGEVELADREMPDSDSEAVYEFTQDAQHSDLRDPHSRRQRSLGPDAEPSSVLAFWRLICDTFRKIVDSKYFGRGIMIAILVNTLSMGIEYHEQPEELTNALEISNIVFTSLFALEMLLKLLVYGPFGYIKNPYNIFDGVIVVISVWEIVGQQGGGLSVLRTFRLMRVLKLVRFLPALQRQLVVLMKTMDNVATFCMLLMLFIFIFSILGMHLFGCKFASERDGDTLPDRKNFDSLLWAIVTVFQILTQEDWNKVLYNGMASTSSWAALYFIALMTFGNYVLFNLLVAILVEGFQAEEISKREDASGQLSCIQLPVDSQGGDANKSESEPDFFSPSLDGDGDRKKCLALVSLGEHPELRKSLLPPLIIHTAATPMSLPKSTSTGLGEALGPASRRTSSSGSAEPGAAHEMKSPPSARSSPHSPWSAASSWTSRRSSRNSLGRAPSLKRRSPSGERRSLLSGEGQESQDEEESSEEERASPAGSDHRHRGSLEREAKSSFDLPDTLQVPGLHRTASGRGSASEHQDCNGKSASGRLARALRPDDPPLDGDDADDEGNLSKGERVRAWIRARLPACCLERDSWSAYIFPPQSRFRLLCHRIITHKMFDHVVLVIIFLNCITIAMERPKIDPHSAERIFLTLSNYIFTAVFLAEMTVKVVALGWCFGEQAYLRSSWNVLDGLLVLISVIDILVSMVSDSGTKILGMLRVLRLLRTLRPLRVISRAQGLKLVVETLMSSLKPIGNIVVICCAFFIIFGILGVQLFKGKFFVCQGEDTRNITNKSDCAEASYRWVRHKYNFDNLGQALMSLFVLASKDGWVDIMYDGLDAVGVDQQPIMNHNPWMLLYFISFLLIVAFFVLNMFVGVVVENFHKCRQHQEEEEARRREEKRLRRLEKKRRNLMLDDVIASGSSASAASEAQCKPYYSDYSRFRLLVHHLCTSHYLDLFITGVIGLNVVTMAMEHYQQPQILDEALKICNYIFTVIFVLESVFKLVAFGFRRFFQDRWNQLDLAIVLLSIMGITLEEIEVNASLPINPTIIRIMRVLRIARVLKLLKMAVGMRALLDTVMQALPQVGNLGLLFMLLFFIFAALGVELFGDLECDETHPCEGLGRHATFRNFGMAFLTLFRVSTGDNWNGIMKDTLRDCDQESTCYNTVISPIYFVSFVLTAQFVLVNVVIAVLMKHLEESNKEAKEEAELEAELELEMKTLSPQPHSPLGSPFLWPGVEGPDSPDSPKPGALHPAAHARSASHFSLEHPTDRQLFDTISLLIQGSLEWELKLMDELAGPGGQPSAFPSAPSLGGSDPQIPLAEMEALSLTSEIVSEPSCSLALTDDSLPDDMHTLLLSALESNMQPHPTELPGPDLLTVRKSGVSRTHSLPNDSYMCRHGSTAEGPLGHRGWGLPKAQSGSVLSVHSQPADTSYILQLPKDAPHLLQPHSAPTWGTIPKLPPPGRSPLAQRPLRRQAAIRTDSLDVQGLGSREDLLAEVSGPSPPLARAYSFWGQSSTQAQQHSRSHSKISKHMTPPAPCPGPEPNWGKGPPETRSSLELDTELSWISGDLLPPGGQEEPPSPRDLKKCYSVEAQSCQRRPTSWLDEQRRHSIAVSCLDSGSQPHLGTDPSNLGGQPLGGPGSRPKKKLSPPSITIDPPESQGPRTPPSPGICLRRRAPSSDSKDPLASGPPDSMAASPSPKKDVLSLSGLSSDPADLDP
T2 sequence (O43497 whole entry): as above

Usually inhibition stands for the share of the control response that was lost under treatment. As a reminder, the IC50 is the concentration at which inhibition is half-maximal. With `O=C(NCCN1CCCCC1)c1ccc2c(c1)C(=O)N(Cc1cccc(F)c1)C2=O` [Compound 61, 1-(2-{[2-(3-fluoro-benzyl)-1,3-dioxo-2,3-dihydro-1H-isoindol-5-carbonyl]-amino}-ethyl)-piperidinium chloride], the inhibition at 100 µM in test [1] came out at 85.5%. The IC50 in test [2] worked out at 8.52 ± 0.75 µM.
For `CC1CCCCN1CCCNC(=O)c1ccc2c(c1)C(=O)N(Cc1ccc(F)cc1)C2=O` (stereo not drawn) [Compound 69, 1-(3-{[2-(4-fluoro-benzyl)-1,3-dioxo-2,3-dihydro-1H-isoindol-5-carbonyl]-amino}-propyl)-2-methyl-piperidinium chloride], the inhibition at 100 µM in test [1] is 84.7%. The IC50 in test [2] came to 2.03 ± 0.12 µM.
Take `CC1CCCCN1CCCNC(=O)c1ccc2c(c1)C(=O)N(Cc1ccccc1Cl)C2=O` (stereo not drawn) [Compound 76, 1-(3-{[2-(2-chloro-benzyl)-1,3-dioxo-2,3-dihydro-1H-isoindol-5-carbonyl]-amino}-propyl)-2-methyl-piperidinium chloride]: the inhibition at 10 µM in test [1] was found to be 50.9%. In addition, the IC50 in test [2] is 1.52 ± 0.19 µM.
Turning to `CC1CCCCN1CCCNC(=O)c1ccc2c(c1)C(=O)N(Cc1cccc(Cl)c1)C2=O` (stereo not drawn) [Compound 82, 1-(3-{[2-(3-chloro-benzyl)-1,3-dioxo-2,3-dihydro-1H-isoindol-5-carbonyl]-amino}-propyl)-2-methyl-piperidinium chloride], the inhibition at 10 µM in test [1] worked out at 46.2%. In test [2], the IC50 is 1.81 ± 0.46 µM.
Take `O=C(NCCN1CCCCC1)c1ccc2c(c1)C(=O)N(Cc1ccc(Cl)cc1)C2=O` [Compound 87, 1-(2-{[2-(4-chloro-benzyl)-1,3-dioxo-2,3-dihydro-1H-isoindol-5-carbonyl]-amino}-ethyl)-piperidinium chloride]: the inhibition at 10 µM in test [1] is 47.2%. In test [2], the IC50 worked out at 0.96 ± 0.07 µM.
For `CC1CCCCN1CCCNC(=O)c1ccc2c(c1)C(=O)N(Cc1ccc(Cl)cc1)C2=O` (stereo not drawn) [Compound 88, 1-(3-{[2-(4-chloro-benzyl)-1,3-dioxo-2,3-dihydro-1H-isoindol-5-carbonyl]-amino}-propyl)-2-methyl-piperidinium chloride] the same measures were 46.6% and 0.93 ± 0.06 µM.
For `Cc1ccccc1CN1C(=O)c2ccc(C(=O)NCCN3CCCCC3)cc2C1=O` [Compound 93, 1-(2-{[2-(2-methyl-benzyl)-1,3-dioxo-2,3-dihydro-1H-isoindol-5-carbonyl]-amino}-ethyl)-piperidinium chloride], in test [1], the inhibition at 100 µM came to 90.4%. Also, the IC50 in test [2] amounted to 8.28 ± 2.95 µM.
With `Cc1ccccc1CN1C(=O)c2ccc(C(=O)NCCCN3CCCCC3C)cc2C1=O` (stereo not drawn) [Compound 94, 2-methyl-1-(3-{[2-(2-methyl-benzyl)-1,3-dioxo-2,3-dihydro-1H-isoindol-5-carbonyl]-amino}-propyl)-piperidinium chloride], in test [1], the inhibition at 100 µM worked out at 84.8%. Moreover, the IC50 in test [2] is 2.07 ± 0.45 µM.
For `Cc1cccc(CN2C(=O)c3ccc(C(=O)NCCN4CCCCC4)cc3C2=O)c1` [Compound 99, 1-(2-{[2-(3-methyl-benzyl)-1,3-dioxo-2,3-dihydro-1H-isoindol-5-carbonyl]-amino}-ethyl)-piperidinium chloride] the same measures were 89.7% and 1.93 ± 0.23 µM.
As for `Cc1cccc(CN2C(=O)c3ccc(C(=O)NCCCN4CCCCC4C)cc3C2=O)c1` (stereo not drawn) [Compound 100, 2-methyl-1-(3-{[2-(3-methyl-benzyl)-1,3-dioxo-2,3-dihydro-1H-isoindol-5-carbonyl]-amino}-propyl)-piperidinium chloride], the inhibition at 10 µM in test [1] stood at 48.4%. In addition, the IC50 in test [2] worked out at 1.84 ± 0.21 µM.
For `N#Cc1ccc(CN2C(=O)c3ccc(C(=O)NCCN4CCCC4)cc3C2=O)cc1` [Compound 131, 1-(2-{[2-(4-cyano-benzyl)-1,3-dioxo-2,3-dihydro-1H-isoindol-5-carbonyl]-amino}-ethyl)-pyrrolidinium chloride], in test [1], the inhibition at 10 µM is 0.6%.
In the case of `CCC1(C)CC(=O)NC1=O` (stereo not drawn) [Ethosuximide], in test [3], the “effect on mechanic and thermal induction (neurogenic pain)” value is “dosage-dependent reversed mechanic and thermal induction”.
In the case of `COCC(=O)O[C@]1(CCN(C)CCCc2nc3ccccc3[nH]2)CCc2cc(F)ccc2[C@@H]1C(C)C` [Mibefradil, reference compound], the “effect on mechanic and thermal induction (neurogenic pain)” value in test [3] is “dosage-dependent reversed mechanic and thermal induction”. In test [1], the inhibition at 10 µM worked out at 75.1%.
